Active and inactive are the calls of the source. How the calls were made is not given here.
Tested on: CCRIS mutagenicity, Ames/micronucleus/aberration tests
Assay: CCRIS mutagenicity studies
[1] = Test System: AMES SALMONELLA TYPHIMURIUM, Strain/Indicator: TA98, Metabolic Activation: NONE, Method: PREINCUBATION
[2] = Test System: AMES SALMONELLA TYPHIMURIUM, Strain/Indicator: TA98, Metabolic Activation: NONE, Method: STANDARD PLATE
[3] = Test System: AMES SALMONELLA TYPHIMURIUM, Strain/Indicator: TA100, Metabolic Activation: NONE, Method: STANDARD PLATE
[4] = Test System: AMES SALMONELLA TYPHIMURIUM, Strain/Indicator: TA1535, Metabolic Activation: NONE, Method: STANDARD PLATE
[5] = Test System: AMES SALMONELLA TYPHIMURIUM, Strain/Indicator: TA1537, Metabolic Activation: NONE, Method: STANDARD PLATE

For `O=[N+]([O-])c1cc2ccccc2c2ccccc12`, which mutagenic call (Test System: AMES SALMONELLA TYPHIMURIUM, Strain/Indicator: TA98(1,8-DNP6), Metabolic Activation: NONE, Method: STANDARD PLATE) is on record?
Its mutagenic call is “active; positive”.

And the mutagenic call (Test System: AMES SALMONELLA TYPHIMURIUM, Strain/Indicator: TA98(NR), Metabolic Activation: NONE, Method: STANDARD PLATE)?
The mutagenic call was “active; positive”.

What about the mutagenic call [1] of the same compound?
Its mutagenic call is “active; positive”.

What about the mutagenic call [2] of the same compound?
The mutagenic call was “active; positive”.

And the mutagenic call (Test System: AMES SALMONELLA TYPHIMURIUM, Strain/Indicator: TA98, Metabolic Activation: RAT, LIVER, S-9, PCB (10%), Method: PREINCUBATION)?
Its mutagenic call is “inactive; negative”.

What about the mutagenic call [3] of the same compound?
Its mutagenic call is “active; positive”.

And the mutagenic call (Test System: AMES SALMONELLA TYPHIMURIUM, Strain/Indicator: TA7001, Metabolic Activation: NONE, Method: PREINCUBATION)?
Its mutagenic call is “active; positive”.

What about the mutagenic call (Test System: AMES SALMONELLA TYPHIMURIUM, Strain/Indicator: TA7002, Metabolic Activation: NONE, Method: PREINCUBATION) of the same compound?
Its mutagenic call is “active; positive”.

And the mutagenic call (Test System: AMES SALMONELLA TYPHIMURIUM, Strain/Indicator: TA7003, Metabolic Activation: NONE, Method: PREINCUBATION)?
The mutagenic call was “inactive; negative”.

What about the mutagenic call (Test System: AMES SALMONELLA TYPHIMURIUM, Strain/Indicator: TA7004, Metabolic Activation: NONE, Method: PREINCUBATION) of the same compound?
The mutagenic call was “active; positive”.

And the mutagenic call (Test System: AMES SALMONELLA TYPHIMURIUM, Strain/Indicator: TA7005, Metabolic Activation: NONE, Method: PREINCUBATION)?
The mutagenic call was “active; positive”.

And the mutagenic call (Test System: AMES SALMONELLA TYPHIMURIUM, Strain/Indicator: TA7006, Metabolic Activation: NONE, Method: PREINCUBATION)?
Its mutagenic call is “active; positive”.

And the mutagenic call (Test System: AMES SALMONELLA TYPHIMURIUM, Strain/Indicator: YG1021, Metabolic Activation: NONE, Method: STANDARD PLATE)?
The mutagenic call was “active; positive”.

What about the mutagenic call (Test System: AMES SALMONELLA TYPHIMURIUM, Strain/Indicator: YG1024, Metabolic Activation: NONE, Method: STANDARD PLATE) of the same compound?
The mutagenic call was “active; positive”.

And the mutagenic call (Test System: AMES SALMONELLA TYPHIMURIUM, Strain/Indicator: YG1026, Metabolic Activation: NONE, Method: STANDARD PLATE)?
The mutagenic call was “active; positive”.

What about the mutagenic call (Test System: AMES SALMONELLA TYPHIMURIUM, Strain/Indicator: YG1029, Metabolic Activation: NONE, Method: STANDARD PLATE) of the same compound?
Its mutagenic call is “active; positive”.

With `Cc1ccc(C(C)C)cc1O` as the compound, how does the mutagenic call [2] read?
The mutagenic call was “inactive; negative”.

What about the mutagenic call (Test System: AMES SALMONELLA TYPHIMURIUM, Strain/Indicator: TA98, Metabolic Activation: S-9, Method: STANDARD PLATE) of the same compound?
Its mutagenic call is “inactive; negative”.

And the mutagenic call [3]?
The mutagenic call was “inactive; negative”.

And the mutagenic call (Test System: AMES SALMONELLA TYPHIMURIUM, Strain/Indicator: TA100, Metabolic Activation: S-9, Method: STANDARD PLATE)?
Its mutagenic call is “inactive; negative”.

`Nc1nc2cc(Cl)c(Cl)cc2s1` was tested. Which mutagenic call (Test System: AMES SALMONELLA TYPHIMURIUM, Strain/Indicator: TA98, Metabolic Activation: HAMSTER, LIVER, S-9, AROCLOR 1254, Method: STANDARD PLATE) did it give?
The mutagenic call was “inactive; negative”.

And the mutagenic call [2]?
Its mutagenic call is “inactive; negative”.

And the mutagenic call (Test System: AMES SALMONELLA TYPHIMURIUM, Strain/Indicator: TA98, Metabolic Activation: RAT, LIVER, S-9, AROCLOR 1254, Method: STANDARD PLATE)?
The mutagenic call was “inactive; negative”.

What about the mutagenic call (Test System: AMES SALMONELLA TYPHIMURIUM, Strain/Indicator: TA100, Metabolic Activation: HAMSTER, LIVER, S-9, AROCLOR 1254, Method: STANDARD PLATE) of the same compound?
Its mutagenic call is “inactive; negative”.

What about the mutagenic call [3] of the same compound?
Its mutagenic call is “inactive; negative”.

What about the mutagenic call (Test System: AMES SALMONELLA TYPHIMURIUM, Strain/Indicator: TA100, Metabolic Activation: RAT, LIVER, S-9, AROCLOR 1254, Method: STANDARD PLATE) of the same compound?
The mutagenic call was “inactive; negative”.

What about the mutagenic call (Test System: AMES SALMONELLA TYPHIMURIUM, Strain/Indicator: TA1535, Metabolic Activation: HAMSTER, LIVER, S-9, AROCLOR 1254, Method: STANDARD PLATE) of the same compound?
The mutagenic call was “inactive; negative”.

What about the mutagenic call [4] of the same compound?
Its mutagenic call is “inactive; negative”.

What about the mutagenic call (Test System: AMES SALMONELLA TYPHIMURIUM, Strain/Indicator: TA1535, Metabolic Activation: RAT, LIVER, S-9, AROCLOR 1254, Method: STANDARD PLATE) of the same compound?
The mutagenic call was “inactive; negative”.

What about the mutagenic call (Test System: AMES SALMONELLA TYPHIMURIUM, Strain/Indicator: TA1537, Metabolic Activation: HAMSTER, LIVER, S-9, AROCLOR 1254, Method: STANDARD PLATE) of the same compound?
Its mutagenic call is “inactive; negative”.

And the mutagenic call [5]?
The mutagenic call was “inactive; negative”.

And the mutagenic call (Test System: AMES SALMONELLA TYPHIMURIUM, Strain/Indicator: TA1537, Metabolic Activation: RAT, LIVER, S-9, AROCLOR 1254, Method: STANDARD PLATE)?
Its mutagenic call is “inactive; negative”.

What about the mutagenic call (Test System: AMES SALMONELLA TYPHIMURIUM, Strain/Indicator: TA1538, Metabolic Activation: HAMSTER, LIVER, S-9, AROCLOR 1254, Method: STANDARD PLATE) of the same compound?
The mutagenic call was “inactive; negative”.

What about the mutagenic call (Test System: AMES SALMONELLA TYPHIMURIUM, Strain/Indicator: TA1538, Metabolic Activation: NONE, Method: STANDARD PLATE) of the same compound?
Its mutagenic call is “inactive; negative”.

And the mutagenic call (Test System: AMES SALMONELLA TYPHIMURIUM, Strain/Indicator: TA1538, Metabolic Activation: RAT, LIVER, S-9, AROCLOR 1254, Method: STANDARD PLATE)?
Its mutagenic call is “inactive; negative”.

And the mutagenic call (Test System: MOUSE LYMPHOMA, Strain/Indicator: L5178Y (TK+/TK-), Metabolic Activation: NONE, Method: SUSPENSION/PLATE)?
Its mutagenic call is “inactive; negative. reevaluation of results: negative”.

And the mutagenic call (Test System: MOUSE LYMPHOMA, Strain/Indicator: L5178Y (TK+/TK-), Metabolic Activation: RAT, LIVER, S-9, AROCLOR 1254, Method: SUSPENSION/PLATE)?
The mutagenic call was “inactive; negative. reevaluation of results: negative”.

With `Cc1c(O)cc2c(c1O)C(=O)c1ccccc1C2=O` as the compound, how does the mutagenic call [1] read?
Its mutagenic call is “inactive; negative”.

And the mutagenic call (Test System: AMES SALMONELLA TYPHIMURIUM, Strain/Indicator: TA98, Metabolic Activation: RAT, LIVER, S-9, AROCLOR 1254, Method: PREINCUBATION)?
The mutagenic call was “active; positive”.

What about the mutagenic call (Test System: AMES SALMONELLA TYPHIMURIUM, Strain/Indicator: TA98, Metabolic Activation: RAT, LIVER, S-9, PCB, Method: PREINCUBATION) of the same compound?
Its mutagenic call is “active; positive”.

And the mutagenic call (Test System: AMES SALMONELLA TYPHIMURIUM, Strain/Indicator: TA100, Metabolic Activation: NONE, Method: PREINCUBATION)?
The mutagenic call was “inactive; negative”.

What about the mutagenic call (Test System: AMES SALMONELLA TYPHIMURIUM, Strain/Indicator: TA100, Metabolic Activation: RAT, LIVER, S-9, AROCLOR 1254, Method: PREINCUBATION) of the same compound?
Its mutagenic call is “active; positive”.

And the mutagenic call (Test System: AMES SALMONELLA TYPHIMURIUM, Strain/Indicator: TA100, Metabolic Activation: RAT, LIVER, S-9, PCB, Method: PREINCUBATION)?
The mutagenic call was “active; positive”.

What about the mutagenic call (Test System: AMES SALMONELLA TYPHIMURIUM, Strain/Indicator: TA1537, Metabolic Activation: NONE, Method: PREINCUBATION) of the same compound?
Its mutagenic call is “inactive; negative”.

And the mutagenic call (Test System: AMES SALMONELLA TYPHIMURIUM, Strain/Indicator: TA1537, Metabolic Activation: RAT, LIVER, S-9, AROCLOR 1254, Method: PREINCUBATION)?
Its mutagenic call is “active; positive”.

What about the mutagenic call (Test System: UDS RODENT HEPATOCYTES, Strain/Indicator: THY INCORP, Metabolic Activation: NONE) of the same compound?
Its mutagenic call is “active; positive”.

For `CCCCCCCCCCCCCc1ccccc1`, which mutagenic call [2] is on record?
The mutagenic call was “inactive; negative”.

What about the mutagenic call (Test System: AMES SALMONELLA TYPHIMURIUM, Strain/Indicator: TA98, Metabolic Activation: RAT, LIVER, S-9, AROCLOR 1254 (10%), Method: STANDARD PLATE) of the same compound?
Its mutagenic call is “inactive; negative”.

What about the mutagenic call [3] of the same compound?
Its mutagenic call is “inactive; negative”.

What about the mutagenic call (Test System: AMES SALMONELLA TYPHIMURIUM, Strain/Indicator: TA100, Metabolic Activation: RAT, LIVER, S-9, AROCLOR 1254 (10%), Method: STANDARD PLATE) of the same compound?
Its mutagenic call is “inactive; negative”.

And the mutagenic call [4]?
The mutagenic call was “inactive; negative”.

And the mutagenic call (Test System: AMES SALMONELLA TYPHIMURIUM, Strain/Indicator: TA1535, Metabolic Activation: RAT, LIVER, S-9, AROCLOR 1254 (10%), Method: STANDARD PLATE)?
Its mutagenic call is “inactive; negative”.

And the mutagenic call [5]?
Its mutagenic call is “inactive; negative”.

What about the mutagenic call (Test System: AMES SALMONELLA TYPHIMURIUM, Strain/Indicator: TA1537, Metabolic Activation: RAT, LIVER, S-9, AROCLOR 1254 (10%), Method: STANDARD PLATE) of the same compound?
Its mutagenic call is “inactive; negative”.

And the mutagenic call (Test System: CHINESE HAMSTER OVARY, Strain/Indicator: CHO (HGPRT), Metabolic Activation: NONE)?
Its mutagenic call is “inactive; negative”.

What about the mutagenic call (Test System: CHINESE HAMSTER OVARY, Strain/Indicator: CHO (HGPRT), Metabolic Activation: RAT, LIVER, S-9, AROCLOR 1254 (1%)) of the same compound?
The mutagenic call was “inactive; negative”.

Reference: PubChem BioAssay AID1259407 (Chemical Carcinogenesis Research Information System (CCRIS), 2018)
